PubChem BioAssay (NCI)
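Step 1: Grow cells in 96-well plates. Step 2: Expose to compound for 48 hours at 5 concentrations. Step 3: Interpolate endpoints linearly; if unreached, use highest concentration. The concentration for full growth arrest is given as TGI.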 Where a SMILES comes first, the peptide text is derived from it. [ ]: non-standard residue; d: D form. The star is where a group is joined. NMeV = CN[C@H](C(=O)O)C(C)C; X29 = COc1ccc(CN*)c(OC)c1; Octanoyl = CCCCCCCC(=O)*; dNMeA = CN[C@H](C)C(=O)O

How the values were obtained:
Test in all cases: growth of human tumour cells (NCI), 48 h
HL-60(TB) leukemia = tested on: HL-60(TB) leukemia
KM12 colon = tested on: KM12 colon
UACC-62 melanoma = tested on: UACC-62 melanoma
NCI-H522 lung = tested on: NCI-H522 lung
MOLT-4 leukemia = tested on: MOLT-4 leukemia
SK-OV-3 ovarian = tested on: SK-OV-3 ovarian
SK-MEL-5 melanoma = tested on: SK-MEL-5 melanoma
HCC-2998 colon = tested on: HCC-2998 colon
SK-MEL-2 melanoma = tested on: SK-MEL-2 melanoma
ACHN renal = tested on: ACHN renal
UACC-257 melanoma = tested on: UACC-257 melanoma
SNB-75 CNS = tested on: SNB-75 CNS
SF-295 CNS = tested on: SF-295 CNS
HS 578T breast = tested on: HS 578T breast
HCT-116 colon = tested on: HCT-116 colon
OVCAR-8 ovarian = tested on: OVCAR-8 ovarian
MDA-MB-435 = tested on: MDA-MB-435
A498 renal = tested on: A498 renal
MCF7 breast = tested on: MCF7 breast
NCI/ADR-RES ovarian = tested on: NCI/ADR-RES ovarian

Structure (SMILES) | TGI (HL-60(TB) leukemia) | TGI (KM12 colon) | TGI (UACC-62 melanoma) | TGI (NCI-H522 lung) | TGI (MOLT-4 leukemia) | TGI (SK-OV-3 ovarian) | TGI (SK-MEL-5 melanoma) | TGI (HCC-2998 colon) | TGI (SK-MEL-2 melanoma) | TGI (ACHN renal) | TGI (UACC-257 melanoma) | TGI (SNB-75 CNS) | TGI (SF-295 CNS) | TGI (HS 578T breast) | TGI (HCT-116 colon) | TGI (OVCAR-8 ovarian) | TGI (MDA-MB-435) | TGI (A498 renal) | TGI (MCF7 breast) | TGI (NCI/ADR-RES ovarian)
C=CCC1(OCc2ccccc2)C(=O)C(=O)OC1C1COC(C)(C)O1 (centres undefined) | > 100 µM | > 100 µM | > 100 µM | > 100 µM | > 100 µM | > 100 µM | > 100 µM | > 100 µM | > 100 µM | > 100 µM | > 100 µM | > 100 µM | > 100 µM | > 100 µM | > 100 µM | > 100 µM | > 100 µM | > 100 µM | > 100 µM | > 100 µM
Cc1ccccc1-n1c(=O)c2ncn(C3CCCO3)c2n(-c2ccccc2C)c1=S (centres undefined) | > 100 µM | > 100 µM | > 100 µM | > 100 µM | > 100 µM | > 100 µM | > 100 µM | > 100 µM | > 100 µM | > 100 µM | > 100 µM | > 100 µM | > 100 µM | > 100 µM | > 100 µM | > 100 µM | > 100 µM | > 100 µM | > 100 µM | > 100 µM
C=CCN1C(=O)/C(=C/c2cccs2)N=C1SC/C=C/C | 62.2 µM | > 100 µM | > 100 µM | 97.5 µM | 44.6 µM | > 100 µM | 37.7 µM | > 100 µM | 65.8 µM | > 100 µM | > 100 µM | > 100 µM | > 100 µM | > 100 µM | > 100 µM | > 100 µM | > 100 µM | 98.8 µM | > 100 µM | > 100 µM
COCc1nc(N)nc(N2N=C(C)CC2(C)C)n1 | > 100 µM | > 100 µM | > 100 µM | > 100 µM | > 100 µM | > 100 µM | > 100 µM | > 100 µM | > 100 µM | > 100 µM | > 100 µM | > 100 µM | > 100 µM | > 100 µM | > 100 µM | > 100 µM | > 100 µM | > 100 µM | > 100 µM | > 100 µM
CCCCCCCC(=O)N[C@H](C(=O)N[C@H](C(=O)N(C)[C@H](C(=O)N1CCC[C@H]1C(=O)N(C)[C@H](C)C(=O)NCc1ccc(OC)cc1OC)C(C)C)C(C)C)C(C)C (Octanoyl-VV[NMeV]P[dNMeA]-X29) | 11.3 µM | > 100 µM | 23.7 µM | 31.4 µM | > 90.4 µM | > 100 µM | 13 µM | > 100 µM | 42.3 µM | 42.4 µM | 60.7 µM | > 100 µM | > 88.7 µM | 33.4 µM | > 50.1 µM | > 100 µM | 28.9 µM | 12.2 µM | 42.8 µM | > 100 µM
COc1cc2c3c(c1)CCCN3CCC2 | > 10 µM | > 10 µM | > 10 µM | > 10 µM | > 10 µM | > 10 µM | > 10 µM | > 10 µM | > 10 µM | > 10 µM | > 10 µM | > 10 µM | > 10 µM | > 10 µM | > 10 µM | > 10 µM | > 10 µM | > 10 µM | > 10 µM | > 10 µM
C[C@]12CC[C@@H]3c4cc(OCC(F)(F)F)c(O)cc4CC[C@H]3[C@@H]1CC[C@@H]2O | 10.7 µM | 12.7 µM | 17.3 µM | 3.88 µM | 18.9 µM | 16.8 µM | 15.4 µM | 16.9 µM | 18.5 µM | 47.1 µM | 21.4 µM | 13.2 µM | 11.6 µM | 23 µM | 16.7 µM | 34.3 µM | 1.1 µM | 20.7 µM | 17.3 µM | 36.8 µM
CCOC(=O)C1=NOC2(C=C(Br)C(=O)C(Br)=C2)C1 | 1.1 µM | 29.7 µM | 8.54 µM | 1.34 µM | 0.304 µM | 21.1 µM | 21.7 µM | 3.22 µM | 15 µM | 2.25 µM | 2.71 µM | 33.4 µM | 32.4 µM | 68.1 µM | 2.63 µM | 5.3 µM | 3.49 µM | 38 µM | 11.1 µM | > 26.6 µM
COC(=O)[C@H](CCSC)NC(=O)N[C@H](C)c1ccccc1 | > 100 µM | > 100 µM | > 100 µM | 47.5 µM | > 100 µM | > 100 µM | > 100 µM | > 100 µM | > 100 µM | > 100 µM | > 100 µM | > 100 µM | > 100 µM | > 100 µM | > 100 µM | > 100 µM | > 100 µM | > 100 µM | > 100 µM | > 100 µM
O=[N+]([O-])c1nccn1CCCNc1ccnc2cc(Cl)ccc12 | > 100 µM | > 26.6 µM | > 8.46 µM | 6.71 µM | > 100 µM | > 100 µM | 10.9 µM | 55.3 µM | > 95.7 µM | > 17.8 µM | > 9.02 µM | > 100 µM | > 100 µM | > 100 µM | > 100 µM | > 100 µM | > 100 µM | > 70.9 µM | > 100 µM | > 100 µM
CC(C)(C)c1cc2c(OC/C=C/c3ccccc3)c(c1)Cc1cc(C(C#N)(OC/C=C/c3ccccc3)OC/C=C/c3ccccc3)cc(c1OC/C=C\c1ccccc1)Cc1cc(C(C)(C)C)cc(c1OC/C=C/c1ccccc1)Cc1cc(C(C#N)(OC/C=C\c3ccccc3)OC/C=C/c3ccccc3)cc(c1OC/C=C\c1ccccc1)C2 (centres undefined) | > 100 µM | > 100 µM | > 100 µM | > 100 µM | > 100 µM | > 100 µM | > 100 µM | > 100 µM | > 100 µM | > 100 µM | > 100 µM | > 100 µM | > 100 µM | > 100 µM | > 100 µM | > 100 µM | > 100 µM | > 100 µM | > 100 µM | > 100 µM
Cc1ccc(NC(Nc2ccc(C)cc2C)=C(/C=C(\Cl)[N+](=O)[O-])[N+](=O)[O-])c(C)c1 | 2.6 µM | 26.7 µM | 10 µM | 4.52 µM | 4.82 µM | 21 µM | 13.4 µM | 38.4 µM | 16.9 µM | 8.26 µM | 13.1 µM | 16.4 µM | 31.2 µM | 17 µM | 3.14 µM | 7.86 µM | 7.98 µM | 32.4 µM | 12.4 µM | 48.8 µM
COc1cc2c(cc1OC)C1C=NC(C2)c2cc(OC)c(OC)cc21 (centres undefined) | > 100 µM | > 100 µM | > 100 µM | > 100 µM | > 100 µM | > 100 µM | > 100 µM | > 100 µM | > 100 µM | > 100 µM | > 100 µM | > 100 µM | > 100 µM | > 100 µM | > 100 µM | > 100 µM | > 100 µM | > 100 µM | > 100 µM | > 100 µM
CCOC(=O)C1C(c2ccc3c(c2)OCO3)c2c([nH][nH]c2=O)CC1(C)O (centres undefined) | > 100 µM | > 100 µM | > 100 µM | > 100 µM | > 100 µM |  | > 100 µM | > 100 µM | > 100 µM | > 100 µM | > 100 µM | > 100 µM | > 100 µM | > 100 µM | > 100 µM | > 100 µM | > 100 µM | > 100 µM | > 100 µM | > 100 µM
CC1=NN(C(=O)c2ccncc2)C(=O)C1 | > 100 µM | > 100 µM | > 100 µM | > 100 µM | > 100 µM | > 100 µM | > 100 µM | > 100 µM | > 100 µM | > 100 µM | > 100 µM | > 100 µM | > 100 µM | > 100 µM | > 100 µM | > 100 µM | > 100 µM | > 100 µM | > 100 µM | > 100 µM
CCC1(c2ccccc2)C(=O)N=C(c2ccccc2)N1CCc1ccccc1 (centres undefined) | > 100 µM | > 100 µM | > 100 µM | > 100 µM | > 100 µM | > 100 µM | > 100 µM | > 100 µM | > 100 µM | > 100 µM | > 100 µM | > 100 µM | > 100 µM | > 100 µM | > 100 µM | > 100 µM | > 100 µM | > 100 µM | > 100 µM | > 100 µM
O=C(CCCN1CCC2(CC1)CC(c1ccccc1)OC2=O)c1ccc(F)cc1 (centres undefined) | > 100 µM | 97.1 µM | 61.9 µM | > 100 µM | 62.1 µM | > 100 µM | 36.1 µM | 73.2 µM | > 100 µM | > 100 µM | 52.1 µM | 54.2 µM | 60.9 µM | 95.2 µM | > 100 µM | > 100 µM | > 100 µM | 74.5 µM | > 100 µM | > 100 µM
COc1ccc(C(=O)/C=C/c2ccc(O)c(O)c2)c(OC)c1 | 2.53 µM | 15 µM | 14.4 µM | 0.74 µM | > 38.9 µM | > 67.9 µM | 13.3 µM | 3.4 µM | 9.82 µM | > 70.3 µM | 15.3 µM | 29.5 µM | 31 µM | > 100 µM | 16.1 µM | > 86.6 µM | > 48.5 µM | 21.2 µM | 14.1 µM | > 61.2 µM
O=C(O)C12C3CCC(CC3)C1(C(=O)O)C1CCC2C1 (centres undefined) | > 100 µM | > 100 µM | > 100 µM | > 100 µM | > 100 µM | > 100 µM | > 100 µM | > 100 µM | > 100 µM | > 100 µM | > 100 µM | > 100 µM | > 100 µM | > 100 µM | > 100 µM | > 100 µM | > 100 µM | > 100 µM | > 100 µM | > 100 µM
COC(=O)[C@@H]1[C@H](OC(C)=O)CCC2[C@@]3(C[C@@H](c4ccoc4)O[C@@H]3OC)[C@H](C)CC[C@]21C(=O)OC (some centres undefined) | > 25 µM | > 25 µM | > 25 µM | > 25 µM | > 25 µM | > 25 µM | > 25 µM | > 25 µM | > 25 µM | > 25 µM | > 25 µM | > 25 µM | > 25 µM | > 25 µM | > 25 µM | > 25 µM | > 25 µM | > 25 µM | > 25 µM | > 25 µM
